In ChEMBL document CHEMBL4371080, “Multiple weak intercalation as a strategy for the inhibition of polymerases” (Bioorg Med Chem Lett, 2019):
Where a SMILES comes first, the peptide text is derived from it. Bridges are numbered along the chain shown (N, C = ends). [ ]: non-standard residue; d: D form. The star is where a group is joined. ξ: configuration not given here. Quinoxaline2carbonyl = O=C(c1cnc2ccccc2n1)*; ξDap = NCC(N)C(=O)O

How the values were obtained:
[1] = biological target: T1, Human immunodeficiency virus type 1 reverse transcriptase (Human immunodeficiency virus 1, UniProt Q72547); test: Inhibition of HIV1 reverse transcriptase assessed as reduction in [3H]dTTP incorporation using poly(rA)/oligo(dT) as template/primer after 30 mins by scintillation counting method
[2] = biological target: Human immunodeficiency virus type 1 reverse transcriptase (Human immunodeficiency virus 1) (UniProt Q72547); test: Inhibition of HIV1 reverse transcriptase assessed as reduction in [3H]dTTP incorporation by measuring proportional residual activity ratio at 300 uM using poly(rA)/oligo(dT) as template/primer after 30 mins by scintillation counting method
[3] = biological target: Human immunodeficiency virus type 1 reverse transcriptase (Human immunodeficiency virus 1) (UniProt Q72547); test: Inhibition of HIV1 reverse transcriptase assessed as reduction in [3H]dTTP incorporation by measuring proportional residual activity ratio at 100 uM using poly(rA)/oligo(dT) as template/primer after 30 mins by scintillation counting method
[4] = biological target: Human immunodeficiency virus type 1 reverse transcriptase (Human immunodeficiency virus 1) (UniProt Q72547); test: Ratio of IC50 for inhibition of HIV1 reverse transcriptase in presence of calf thymus DNA to IC50 for inhibition of HIV1 reverse transcriptase in absence of calf thymus DNA
[5] = biological target: T1, Human immunodeficiency virus type 1 reverse transcriptase; test: Inhibition of HIV1 reverse transcriptase assessed as reduction in [3H]dTTP incorporation using poly(rA)/oligo(dT) as template/primer after 30 mins in presence of Triton-X-100 by scintillation counting method
[6] = biological target: Human immunodeficiency virus type 1 reverse transcriptase (Human immunodeficiency virus 1) (UniProt Q72547); test: Inhibition of HIV1 reverse transcriptase assessed as reduction in [3H]dTTP incorporation by measuring proportional residual activity ratio at 20 uM using poly(rA)/oligo(dT) as template/primer after 30 mins by scintillation counting method relative to control
[7] = biological target: T2, DNA polymerase alpha catalytic subunit (Homo sapiens) (UniProt P09884); test: Inhibition of human DNA polymerase-alpha assessed as reduction in [3H]dTTP incorporation in to activated calf thymus DNA substrate at 600 uM after 30 mins by scintillation counting method relative to control
T2 sequence (whole entry): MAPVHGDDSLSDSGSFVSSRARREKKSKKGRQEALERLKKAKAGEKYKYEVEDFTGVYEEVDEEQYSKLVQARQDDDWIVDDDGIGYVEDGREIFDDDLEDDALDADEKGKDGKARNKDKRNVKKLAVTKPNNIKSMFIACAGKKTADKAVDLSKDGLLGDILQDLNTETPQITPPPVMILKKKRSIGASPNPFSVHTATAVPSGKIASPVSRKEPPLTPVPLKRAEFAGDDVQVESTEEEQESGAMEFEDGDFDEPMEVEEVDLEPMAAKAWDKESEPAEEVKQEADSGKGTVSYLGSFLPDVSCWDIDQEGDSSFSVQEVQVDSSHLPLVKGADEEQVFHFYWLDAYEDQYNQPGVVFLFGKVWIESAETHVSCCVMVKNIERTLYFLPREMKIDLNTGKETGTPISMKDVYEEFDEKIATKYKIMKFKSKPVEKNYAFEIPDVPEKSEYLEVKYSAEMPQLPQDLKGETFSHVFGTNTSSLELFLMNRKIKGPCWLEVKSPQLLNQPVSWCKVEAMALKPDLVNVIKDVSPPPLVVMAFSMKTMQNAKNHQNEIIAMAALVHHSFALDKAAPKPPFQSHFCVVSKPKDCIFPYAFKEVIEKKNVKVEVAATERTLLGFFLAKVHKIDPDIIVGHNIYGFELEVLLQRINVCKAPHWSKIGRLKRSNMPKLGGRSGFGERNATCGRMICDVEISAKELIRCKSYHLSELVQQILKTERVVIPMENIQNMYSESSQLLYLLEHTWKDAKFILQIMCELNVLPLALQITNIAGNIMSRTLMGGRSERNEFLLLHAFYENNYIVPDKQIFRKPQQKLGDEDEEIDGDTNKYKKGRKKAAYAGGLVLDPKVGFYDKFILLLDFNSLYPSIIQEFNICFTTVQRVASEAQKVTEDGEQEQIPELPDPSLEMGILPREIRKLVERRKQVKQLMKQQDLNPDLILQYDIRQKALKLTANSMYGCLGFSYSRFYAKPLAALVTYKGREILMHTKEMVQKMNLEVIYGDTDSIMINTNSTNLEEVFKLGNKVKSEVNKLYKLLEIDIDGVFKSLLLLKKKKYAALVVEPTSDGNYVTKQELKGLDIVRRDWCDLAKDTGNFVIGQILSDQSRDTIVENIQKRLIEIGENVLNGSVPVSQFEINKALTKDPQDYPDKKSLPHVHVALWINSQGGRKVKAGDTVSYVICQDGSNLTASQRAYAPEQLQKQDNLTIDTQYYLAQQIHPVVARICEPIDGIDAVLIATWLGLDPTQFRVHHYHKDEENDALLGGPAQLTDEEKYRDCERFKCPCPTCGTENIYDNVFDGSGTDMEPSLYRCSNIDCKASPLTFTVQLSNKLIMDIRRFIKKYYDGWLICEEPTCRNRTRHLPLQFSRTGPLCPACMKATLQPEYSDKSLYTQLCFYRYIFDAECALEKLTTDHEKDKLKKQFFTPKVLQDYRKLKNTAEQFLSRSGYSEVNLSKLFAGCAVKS

[8] = biological target: T1, Human immunodeficiency virus type 1 reverse transcriptase; test: Inhibition of HIV1 reverse transcriptase assessed as reduction in [3H]dTTP incorporation using poly(rA)/oligo(dT) as template/primer after 30 mins in presence of calf thymus DNA by scintillation counting method

| Ratio [6] | Compound | IC50 [1] | further results |
| --- | --- | --- | --- |
| – | NC(=O)[C@H](Cc1c[nH]c2ccccc12)NC(=O)CCNC(=O)[C@H](N)Cc1c[nH]c2ccccc12 | 188 µM | Ratio [2]: 0.3 |
| – | NC(=O)[C@@H](Cc1c[nH]c2ccccc12)NC(=O)CCNC(=O)[C@H](N)Cc1c[nH]c2ccccc12 | – | Ratio [3]: 0.39 |
| – | COc1ccc2cc([C@H](C)C(=O)O)ccc2c1 [NAPROXEN SODIUM] | 6700 µM | – |
| – | O=C(O)c1cnc2ccccc2n1 | 320 µM | – |
| – | NC(=O)[C@H](Cc1c[nH]c2ccccc12)NC(=O)CCCNC(=O)[C@@H](N)Cc1c[nH]c2ccccc12 | – | Ratio [3]: 0.55 |
| – | NC(=O)[C@H](Cc1c[nH]c2ccccc12)NC(=O)CCNC(=O)[C@@H](N)Cc1c[nH]c2ccccc12 | 227 µM | Ratio [2]: 0.25 |
| 0.09 | NCC1NC(=O)C[C@@H](C(N)=O)NC(=O)C(CNC(=O)c2cnc3ccccc3n2)NC(=O)CNC(=O)CNC(=O)CNC(=O)C(CNC(=O)c2cnc3ccccc3n2)NC1=O (stereo partly drawn) ([ξDap][ξDap](Quinoxaline2carbonyl)GGG[ξDap](Quinoxaline2carbonyl)D-NH2; lactam N-7) | 6.5 µM | Ratio IC50 [4]: 3.5; IC50 [5]: 7 µM; inhibition [7]: 89%; IC50 [8]: 21.8 µM |
| – | O=C(O)c1cnc2ccccc2c1 | 2400 µM | – |
| – | NC(=O)[C@@H](N)Cc1c[nH]c2ccccc12 | 9900 µM | IC50 [5]: 15700 µM |
| – | COc1cc(NC(C)CCCN)c2ncccc2c1 (configuration not stated) [PRIMAQUINE PHOSPHATE] | 100 µM | – |
| – | NC(=O)[C@@H](Cc1c[nH]c2ccccc12)NC(=O)CCCNC(=O)[C@@H](N)Cc1c[nH]c2ccccc12 | – | Ratio [3]: 0.78 |
| 0.38 | NCC1NC(=O)C[C@@H](C(N)=O)NC(=O)CNC(=O)CNC(=O)C(CNC(=O)c2cnc3ccccc3n2)NC(=O)C(CNC(=O)c2cnc3ccccc3n2)NC(=O)CNC1=O (some centres not stated) ([ξDap]G[ξDap](Quinoxaline2carbonyl)[ξDap](Quinoxaline2carbonyl)GGD-NH2; lactam N-7) | – | – |
| 0.13 | NCC1NC(=O)C[C@@H](C(N)=O)NC(=O)C(CNC(=O)c2cnc3ccccc3n2)NC(=O)CNC(=O)CNC(=O)C(CNC(=O)c2cnc3ccccc3n2)NC(=O)CNC1=O (stereo partly drawn) ([ξDap]G[ξDap](Quinoxaline2carbonyl)GG[ξDap](Quinoxaline2carbonyl)D-NH2; lactam N-7) | – | – |
| 0.09 | NCC1NC(=O)C[C@@H](C(N)=O)NC(=O)CNC(=O)C(CNC(=O)c2cnc3ccccc3n2)NC(=O)CNC(=O)C(CNC(=O)c2cnc3ccccc3n2)NC(=O)CNC1=O (some centres not stated) ([ξDap]G[ξDap](Quinoxaline2carbonyl)G[ξDap](Quinoxaline2carbonyl)GD-NH2; lactam N-7) | – | – |
| 0.06 | NCC1NC(=O)C[C@@H](C(N)=O)NC(=O)C(CNC(=O)c2cnc3ccccc3n2)NC(=O)CNC(=O)CNC(=O)C(CNC(=O)c2cnc3ccccc3n2)NC(=O)C(CNC(=O)c2cnc3ccccc3n2)NC1=O (stereo partly drawn) ([ξDap][ξDap](Quinoxaline2carbonyl)[ξDap](Quinoxaline2carbonyl)GG[ξDap](Quinoxaline2carbonyl)D-NH2; lactam N-7) | – | – |
| 0.02 | NCC1NC(=O)C[C@@H](C(N)=O)NC(=O)CNC(=O)C(CNC(=O)c2cnc3ccccc3n2)NC(=O)CNC(=O)CNC(=O)C(CNC(=O)c2cnc3ccccc3n2)NC1=O (some centres not stated) ([ξDap][ξDap](Quinoxaline2carbonyl)GG[ξDap](Quinoxaline2carbonyl)GD-NH2; lactam N-7) | – | – |
| 0.71 | NCC1NC(=O)C[C@@H](C(N)=O)NC(=O)C(CNC(=O)c2cnc3ccccc3n2)NC(=O)C(CNC(=O)c2cnc3ccccc3n2)NC(=O)CNC(=O)CNC(=O)CNC1=O (stereo partly drawn) ([ξDap]GGG[ξDap](Quinoxaline2carbonyl)[ξDap](Quinoxaline2carbonyl)D-NH2; lactam N-7) | – | – |
| – | O=C(O)c1ccnc2ccccc12 | 9600 µM | – |
| 0.08 | NCC1NC(=O)C[C@@H](C(N)=O)NC(=O)CNC(=O)C(CNC(=O)c2cnc3ccccc3n2)NC(=O)C(CNC(=O)c2cnc3ccccc3n2)NC(=O)C(CNC(=O)c2cnc3ccccc3n2)NC(=O)CNC1=O (some centres not stated) ([ξDap]G[ξDap](Quinoxaline2carbonyl)[ξDap](Quinoxaline2carbonyl)[ξDap](Quinoxaline2carbonyl)GD-NH2; lactam N-7) | – | – |
